The record followed here is patent US12344595B2, “2-amino-n-phenyl-nicotinamides as NAV1.8 inhibitors” (Merck Sharp & Dohme LLC, priority 2018, dated 2025).

In the experiment the target is human Nav1.8 (Homo sapiens (Human), UniProt Q9Y5Y9). As to the kind of experiment: Nav1.8 Qube automated patch-clamp assay. The format is cell-based. The following applies: Nav1.8 Qube Assay; human Nav1.8 channels stably expressed in HEK 293 cells. The method in brief: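 Whole-cell automated patch clamp was run at room temperature on HEK293 cells stably expressing the channel. A 1 Hz, 10 s train of 20 ms pulses to 10 mV from −90 mV (repolarizing to −67 mV) was applied. Peak currents at the 1st and 10th pulses gave resting and inactivated-state IC50 values by Hill fit.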
Sequence of human Nav1.8 (Q9Y5Y9 whole entry): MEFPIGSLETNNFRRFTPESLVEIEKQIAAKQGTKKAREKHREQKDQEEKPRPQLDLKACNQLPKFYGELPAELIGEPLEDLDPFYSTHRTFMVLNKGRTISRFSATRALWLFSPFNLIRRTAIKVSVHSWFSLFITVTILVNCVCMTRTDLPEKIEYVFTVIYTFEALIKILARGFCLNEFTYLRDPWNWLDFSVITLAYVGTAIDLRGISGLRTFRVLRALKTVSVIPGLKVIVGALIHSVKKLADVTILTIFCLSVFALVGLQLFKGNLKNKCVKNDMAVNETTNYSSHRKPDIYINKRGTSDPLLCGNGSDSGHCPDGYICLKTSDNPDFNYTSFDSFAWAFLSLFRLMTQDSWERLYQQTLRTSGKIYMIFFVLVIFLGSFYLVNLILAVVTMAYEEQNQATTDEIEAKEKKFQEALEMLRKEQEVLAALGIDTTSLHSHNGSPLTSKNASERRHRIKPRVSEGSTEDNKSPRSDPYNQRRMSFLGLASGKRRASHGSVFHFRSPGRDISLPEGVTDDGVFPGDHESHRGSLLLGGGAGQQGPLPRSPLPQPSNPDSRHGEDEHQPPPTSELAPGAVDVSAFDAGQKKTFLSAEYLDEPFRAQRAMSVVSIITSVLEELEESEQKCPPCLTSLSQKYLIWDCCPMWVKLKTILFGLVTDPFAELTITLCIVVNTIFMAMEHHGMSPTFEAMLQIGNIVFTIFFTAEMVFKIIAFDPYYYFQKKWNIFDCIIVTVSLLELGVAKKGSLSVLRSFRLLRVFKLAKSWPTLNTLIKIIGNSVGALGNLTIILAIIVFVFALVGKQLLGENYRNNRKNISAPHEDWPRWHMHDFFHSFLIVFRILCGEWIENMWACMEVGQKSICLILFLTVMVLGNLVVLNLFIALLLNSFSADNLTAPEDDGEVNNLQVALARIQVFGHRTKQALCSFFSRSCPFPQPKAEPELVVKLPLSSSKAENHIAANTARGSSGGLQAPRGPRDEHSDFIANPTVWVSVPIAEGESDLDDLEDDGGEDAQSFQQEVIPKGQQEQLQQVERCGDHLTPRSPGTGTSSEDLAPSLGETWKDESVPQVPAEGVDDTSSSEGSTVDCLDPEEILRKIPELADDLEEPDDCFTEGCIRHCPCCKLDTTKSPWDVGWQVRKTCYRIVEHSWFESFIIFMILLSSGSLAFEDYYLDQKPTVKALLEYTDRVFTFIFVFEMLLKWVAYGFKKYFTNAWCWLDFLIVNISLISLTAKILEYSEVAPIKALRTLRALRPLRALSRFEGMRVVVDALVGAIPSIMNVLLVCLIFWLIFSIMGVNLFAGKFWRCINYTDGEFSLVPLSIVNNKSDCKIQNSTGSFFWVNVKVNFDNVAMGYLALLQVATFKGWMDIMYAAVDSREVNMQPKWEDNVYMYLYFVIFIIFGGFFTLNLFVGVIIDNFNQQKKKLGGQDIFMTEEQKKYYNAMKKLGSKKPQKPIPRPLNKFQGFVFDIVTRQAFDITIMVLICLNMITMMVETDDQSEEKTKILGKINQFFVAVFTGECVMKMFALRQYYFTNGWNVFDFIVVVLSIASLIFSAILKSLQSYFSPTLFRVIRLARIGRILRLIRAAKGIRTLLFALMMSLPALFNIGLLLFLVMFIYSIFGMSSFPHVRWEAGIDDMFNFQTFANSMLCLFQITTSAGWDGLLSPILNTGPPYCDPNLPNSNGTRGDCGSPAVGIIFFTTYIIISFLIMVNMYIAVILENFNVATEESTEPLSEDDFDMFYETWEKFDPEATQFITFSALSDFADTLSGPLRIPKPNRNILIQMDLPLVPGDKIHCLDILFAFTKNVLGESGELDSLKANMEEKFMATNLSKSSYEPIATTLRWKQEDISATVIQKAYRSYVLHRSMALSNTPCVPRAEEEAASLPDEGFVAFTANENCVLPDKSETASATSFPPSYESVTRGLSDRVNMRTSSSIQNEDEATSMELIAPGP
(In general: In patch-clamp work, channel activity is measured electrically.)
Usually IC50 stands for the concentration that gives 50% inhibition. Read a low IC50 as greater potency in that assay. Regarding `COC(=O)N1CCN(c2ncc(C(F)(F)F)cc2C(=O)Nc2cccc(S(N)(=O)=O)c2)CC1` [Example 74, methyl 4-[3-[(3-sulfamoylphenyl)carbamoyl]-5-(trifluoro-methyl)-2-pyridyl]-piperazine-1-carboxylate], the IC50 came out at 9970 nM.

In the case of `Cc1ccc(C(=O)Nc2cccc(C(N)=O)c2)c(N2CCCC(F)(F)CC2)n1` [Example 75, N-(3-carbamoylphenyl)-2-(4,4-difluoroazepan-1-yl)-6-methylnicotinamide], the IC50 is 16 nM. Consider `Cc1nc(N2CCC3(CC2)CC3)c(C(=O)Nc2cccc(S(N)(=O)=O)c2)c(C)c1Cl` [Example 76, 2-(6-azaspiro[2.5]-octan-6-yl)-5-chloro-4,6-dimethyl-N-(3-sulfamoylphenyl) pyridine-3-carboxamide], for which the IC50 was found to be 2.2 nM.

`NS(=O)(=O)c1cccc(NC(=O)c2ccc(C(F)(F)F)nc2N2CCCCC2)c1` [Example 77, 2-(1-piperidyl)-N-(3-sulfamoylphenyl)-6-(trifluoromethyl) pyridine-3-carboxamide] registered an IC50 of 286 nM. `NS(=O)(=O)c1cccc(NC(=O)c2cc(C(F)(F)F)cnc2N2CCCC3(CC2)CC3)c1` [Example 79, 2-(6-azaspiro[2.6]nonan-6-yl)-N-(3-sulfamoyl-phenyl)-5-(trifluoro-methyl)nicotinamide] showed an IC50 of 10 nM. As to `CC1(C)CCCN(c2ncc(C(F)(F)F)cc2C(=O)Nc2cccc(S(N)(=O)=O)c2)CC1` [Example 80, 2-(4,4-dimethylazepan-1-yl)-N-(3-sulfamoyl-phenyl)-5-(trifluoro-methyl)nicotinamide], the midpoint of inhibition, the IC50, lay at 11 nM. In the case of `NS(=O)(=O)c1cccc(NC(=O)c2cc(C(F)(F)F)cnc2N2CC3(CCOCC3)C2)c1` [Example 81, 2-(7-oxa-2-azaspiro[3.5]nonan-2-yl)-N-(3-sulfamoyl-phenyl)-5-(trifluoro-methyl)nicotinamide], the concentration for half-maximal inhibition (IC50) is 4240 nM. `CS(=O)(=O)c1cccc(NC(=O)c2ccc(C(F)(F)F)nc2N2CCCCCC2)c1` [Example 82, 2-(azepan-1-yl)-N-(3-(methylsulfonyl)phenyl)-6-(trifluoro-methyl)nicotinamide] returned an IC50 of 60 nM. In the case of `NC(=O)c1cccc(NC(=O)c2ccc(C(F)(F)F)nc2N2CCC3(CC2)CC3)c1` [Example 83, N-(3-carbamoyl-phenyl)-2-(6-azaspiro[2.5]octan-6-yl)-6-(trifluoro-methyl)-nicotinamide] it was 180 nM; in that of `NS(=O)(=O)c1cccc(NC(=O)c2ccc(OC(F)(F)F)nc2N2CCCCC2)c1` [Example 84, 2-(piperidin-1-yl)-N-(3-sulfamoylphenyl)-6-(trifluoromethoxy)nicotinamide], 248 nM. As to `C[Si](C)(C)c1cc(C(=O)Nc2cccc(S(N)(=O)=O)c2)c(N2CCCCCC2)nc1OC(F)(F)F` [Example 85, 2-(azepan-1-yl)-N-(3-sulfamoylphenyl)-6-(trifluoromethoxy)-5-(trimethylsilyl)nicotinamide], the concentration for half-maximal inhibition (IC50) turned out to be 1220 nM.

As for `C[Si](C)(C)c1cnc(N2CCCCCC2)c(C(=O)Nc2cccc(S(N)(=O)=O)c2)c1` [Example 86, 2-(azepan-1-yl)-N-(3-sulfamoylphenyl)-5-(trimethylsilyl)nicotinamide], the IC50 was 77 nM. Then `C[Si](C)(C)c1cnc(N2CCC3(CC2)COC3)c(C(=O)Nc2cccc(S(N)(=O)=O)c2)c1` [Example 87, 2-(2-oxa-7-azaspiro-[3.5]nonan-7-yl)-N-(3-sulfamoylphenyl)-5-(trimethylsilyl)-nicotinamide], with 7880 nM; and `NS(=O)(=O)c1cccc(NC(=O)c2cc(C(F)(F)F)cnc2N2CCCCCCC2)c1` [Example 88, 2-(azocan-1-yl)-N-(3-sulfamoylphenyl)-5-(trifluoromethyl)-pyridine-3-carboxamide], with 6 nM; and `NS(=O)(=O)c1cccc(NC(=O)c2ccc(Cl)nc2N2CCCCCC2)c1` [Example 89, 2-(azepan-1-yl)-6-chloro-N-(3-sulfamoyl-phenyl)pyridine-3-carboxamide], with 16 nM. In the case of `Cc1ccc(C(=O)Nc2cccc(S(N)(=O)=O)c2)c(N2CCCCCC2)n1` [Example 90, 2-(azepan-1-yl)-6-methyl-N-(3-sulfamoyl-phenyl)pyridine-3-carboxamide] it was 17 nM.

As for `COc1ccc(C(=O)Nc2cccc(S(N)(=O)=O)c2)c(N2CCCCCC2)n1` [Example 91, 2-(azepan-1-yl)-6-methoxy-N-(3-sulfamoyl-phenyl)pyridine-3-carboxamide], the midpoint of inhibition, the IC50, lay at 29 nM. As to `NS(=O)(=O)c1cccc(NC(=O)c2cc(F)c(Cl)nc2N2CCCCCC2)c1` [Example 92, 2-(azepan-1-yl)-6-chloro-5-fluoro-N-(3-sulfamoylphenyl)-pyridine-3-carboxamide], the IC50 stood at 31 nM. The compound `NS(=O)(=O)c1cccc(NC(=O)c2ccc(F)nc2N2CCCCCC2)c1` [Example 93, 2-(azepan-1-yl)-6-fluoro-N-(3-sulfamoyl-phenyl)pyridine-3-carboxamide] showed an IC50 of 59 nM.

As to `CS(=O)(=O)c1cccc(NC(=O)c2cc(C(F)(F)F)cnc2N2CCCC(F)(F)CC2)c1` [Example 94, 2-(4,4-difluoroazepan-1-yl)-N-(3-methylsulfonylphenyl)-5-(trifluoromethyl)-pyridine-3-carboxamide], the concentration for half-maximal inhibition (IC50) turned out to be 8.4 nM. Compound `CS(=O)(=O)c1cccc(NC(=O)c2cc(C(F)(F)F)cnc2N2CCCCCCC2)c1` [Example 95, 2-(azocan-1-yl)-N-(3-methylsulfonylphenyl)-5-(trifluoromethyl)-pyridine-3-carboxamide] registered an IC50 of 20 nM. Then `CS(=O)(=O)c1cccc(NC(=O)c2cc(C(F)(F)F)cnc2N2CC3CCC(F)(F)C3C2)c1` (centres unmarked) [Example 96, 2-(4,4-difluoro-1,3,3a,5,6,6a-hexahydrocyclopenta[c]pyrrol-2-yl)-N-(3-methylsulfonylphenyl)-5-(trifluoromethyl)-pyridine-3-carboxamide], with 40 nM; and `CS(=O)(=O)c1cccc(NC(=O)c2cc(C(F)(F)F)cnc2N2C[C@H]3CCCC[C@H]3C2)c1` [Example 97, 2-[(3aS,7aR)-1,3,3a,4,5,6,7,7a-octahydroisoindol-2-yl]-N-(3-methyl-sulfonylphenyl)-5-(trifluoromethyl) pyridine-3-carboxamide], with 49 nM; and `CS(=O)(=O)c1cccc(NC(=O)c2cc(C(F)(F)F)cnc2N2CCc3ccccc3C2)c1` [Example 98, 2-(3,4-dihydro-1H-isoquinolin-2-yl)-N-(3-methylsulfonylphenyl)-5-(trifluoromethyl)-pyridine-3-carboxamide], with 93 nM. `CS(=O)(=O)c1cccc(NC(=O)c2cc(C(F)(F)F)cnc2N2CCC3(CC2)CC3)c1` [Example 99, 2-(6-azaspiro[2.5]octan-6-yl)-N-(3-methylsulfonylphenyl)-5-(trifluoromethyl)-pyridine-3-carboxamide] yielded an IC50 of 131 nM. In turn, `CS(=O)(=O)c1cccc(NC(=O)c2cc(C(F)(F)F)cnc2N2CCC(F)CC2)c1` [Example 100, 2-(4-fluoro-1-piperidyl)-N-(3-methylsulfonylphenyl)-5-(trifluoromethyl)-pyridine-3-carboxamide] showed an IC50 of 227 nM. The compound `CS(=O)(=O)c1cccc(NC(=O)c2cc(C(F)(F)F)cnc2N2CCC3(CC3)C(F)(F)C2)c1` [Example 101, 2-(8,8-difluoro-6-azaspiro[2.5]octan-6-yl)-N-(3-methyl-sulfonylphenyl)-5-(trifluoromethyl) pyridine-3-carboxamide] had an IC50 of 260 nM. In the case of `CS(=O)(=O)c1cccc(NC(=O)c2cc(C(F)(F)F)cnc2N2CCCC(F)(F)C2)c1` [Example 102, 2-(3,3-difluoro-1-piperidyl)-N-(3-methylsulfonylphenyl)-5-(trifluoromethyl)-pyridine-3-carboxamide], the half-maximal inhibitory concentration (IC50) was found to be 706 nM. On to `CS(=O)(=O)c1cccc(NC(=O)c2cc(C(F)(F)F)cnc2N2Cc3ccccc3C2)c1` [Example 103, 2-isoindolin-2-yl-N-(3-methylsulfonylphenyl)-5-(trifluoromethyl)-pyridine-3-carboxamide], for which inhibition was half-maximal at 2330 nM (IC50). The compound `CS(=O)(=O)c1cccc(NC(=O)c2cc(C(F)(F)F)cnc2N2CCC3OCCC32)c1` (centres unmarked) [Example 104, 2-(2,3,3a,5,6,6a-hexahydrofuro[3,2-b]pyrrol-4-yl)-N-(3-methylsulfonylphenyl)-5-(trifluoromethyl) pyridine-3-carboxamide] yielded a half-inhibitory concentration (IC50) of 7330 nM. Then `CS(=O)(=O)c1cccc(NC(=O)c2cc(C(F)(F)F)cnc2N2CCC(c3ccccc3)CC2)c1` [Example 105, N-(3-methylsulfonylphenyl)-2-(4-phenyl-1-piperidyl)-5-(trifluoro-methyl)pyridine-3-carboxamide], with 8720 nM; and `NC(=O)c1cccc(NC(=O)c2cc(C(F)(F)F)cnc2N2CCCC(F)(F)CC2)c1` [Example 106, N-(3-carbamoylphenyl)-2-(4,4-difluoroazepan-1-yl)-5-(trifluoro-methyl)pyridine-3-carboxamide], with 32 nM. With `NC(=O)c1cccc(NC(=O)c2cc(C(F)(F)F)cnc2N2CCCCCCC2)c1` [Example 107, 2-(azocan-1-yl)-N-(3-carbamoylphenyl)-5-(trifluoromethyl)-pyridine-3-carboxamide], the IC50 turned out to be 73 nM. For the compound `NC(=O)c1cccc(NC(=O)c2cc(C(F)(F)F)cnc2N2CC3CCC(F)(F)C3C2)c1` (centres unmarked) [Example 108, N-(3-carbamoylphenyl)-2-(4,4-difluoro-1,3,3a,- 5,6,6a-hexahydrocyclo-penta[c]pyrrol-2-yl)-5-(trifluoromethyl)-pyridine-3-carboxamide], the midpoint of inhibition, the IC50, lay at 148 nM.

With `NC(=O)c1cccc(NC(=O)c2cc(C(F)(F)F)cnc2N2CCC3(CC3)C(F)(F)C2)c1` [Example 109, N-(3-carbamoylphenyl)-2-(8,8-difluoro-6-aza-spiro[2.5]octan-6-yl)-5-(trifluoro-methyl)-pyridine-3-carboxamide], half-maximal inhibition (IC50) was put at 860 nM.
